Data: patent publication US20220378923A1, “BET DEGRADER” (KYOWA KIRIN CO., LTD., priority 2019, published 2022)
Where two headings read alike, the source gives them in different places.

Test system: SU-DHL-4 cells
Assay: Inhibitory effect on cell viability in SU-DHL-4 cell line (Test Example 1)
Format: cell-based, human
Conditions: SU-DHL-4 cells, 72 hours, Cell Counting Kit-8, concentration showing 90% inhibition of cell viability, read-out: SU-DHL-4 Cell Viability Inhibition Rate IC90
Protocol: SU-DHL-4 cells (Code No. ACC 495, Deutsche Sammlung von Mikroorganismen and Zellkulturen GmbH; DSMZ) were cultured at 37° C. using a carbon dioxide incubator (95% air, 5% CO2) in RPMI1640 medium (Code No. 11875-093, Thermo Fisher Scientific) in which inactivated fetal bovine serum (FBS: Code No. 10099-148, Thermo Fisher Scientific) in an amount to give a final concentration of 10 vol % and penicillin/streptomycin solution (PS: […] The cells were passaged twice a week at a volume of 20-40 mL so as to maintain a cell concentration of 1×10^6 cells/mL or less. […] After seeding, the cells were precultured at 37° C. in a carbon dioxide gas incubator for 18 to 25 hours. […] At this time, the final concentration of DMSO was adjusted to be 0.1 vol %. After adding the test compound, the cells were cultured at 37° C. in a carbon dioxide gas incubator for 72 hours. Next, 0.020 mL of Cell Counting Kit-8 (Code No. CK04, DOJINDO) solution diluted 2-fold or 4-fold with phosphate buffered saline (PBS) was added to each well. Color reaction was carried out in a carbon dioxide gas incubator at 37° C. for 2 to 3 hours, and the absorbance at a wavelength of 450 nm was measured using SpectraMax 340PC (Molecular Devices). […] Absorbance of a well containing test compound • B: Absorbance of a well without addition of cells • C: Absorbance of a well without addition of test compound

SMILES | IC90 [nM] | IC90 (Homo sapiens) [nM]
CCC(=O)N1c2ccccc2[C@H](Nc2ccc(NC(=O)c3coc(N[C@H]4CC[C@H](N[C@@H]5C[C@H](C)N(C(=O)CC)c6ccccc65)CC4)n3)cc2)C[C@@H]1C [Compound 7g, 2-(((1R,4R)-4-(((2S,4R)-2-Methyl-1-propionyl-1,2,3,4-tetrahydroquinolin-4-yl)amino)cyclohexyl)amino)-N-(4-(((2S,4R)-2-methyl-1-propionyl-1,2,3,4-tetrahydroquinolin-4-yl)amino)phenyl)oxazole-4-carboxamide] | 7.56 | 
CCC(=O)N1c2ccccc2[C@H](Nc2ccc(-c3nnc(CNC(=O)N4CCN(Cc5cc(O)cc(-c6c(C)noc6C)c5)CC4)o3)cc2)C[C@@H]1C [Compound 16c, 4-(3-(3,5-Dimethylisoxazol-4-yl)-5-hydroxybenzyl)-N-((5-(4-(((2S,4R)-2-methyl-1-propionyl-1,2,3,4-tetrahydroquinolin-4-yl)amino)phenyl)-1,3,4-oxadiazol-2-yl)methyl)piperazine-1-carboxamide] |  | 0.28
CCC(=O)N1c2ccccc2[C@H](Nc2ccc(-c3cnn(CC(=O)NC4CCC(N[C@@H]5C[C@H](C)N(C(=O)CC)c6ccccc65)CC4)c3)cc2)C[C@@H]1C (relative stereo) [Compound 9b, N-((1R,4R)-4-(((2S*,4R*)-2-Methyl-1-propionyl-1,2,3,4-tetrahydroquinolin-4-yl)amino)cyclohexyl)-2-(4-(4-(((2S,4R)-2-methyl-1-propionyl-1,2,3,4-tetrahydroquinolin-4-yl)amino)phenyl)-1H-pyrazol-1-yl)acetamide] | 3.18 | 
CCC(=O)N1c2ccccc2[C@H](Nc2ccc(-n3cc(CNC(=O)C4CCC(N[C@@H]5C[C@H](C)N(C(=O)CC)c6ccccc65)CC4)nn3)cc2)C[C@@H]1C (relative stereo) [Compound 8l, (1R,4R)-4-(((2S*,4R*)-2-Methyl-1-propionyl-1,2,3,4-tetrahydroquinolin-4-yl)amino)-N-((1-(4-(((2S,4R)-2-methyl-1-propionyl-1,2,3,4-tetrahydroquinolin-4-yl)amino)phenyl)-1H-1,2,3-triazol-4-yl)methyl)cyclohexane-1-carboxamide] | 0.04 | 
CCC(=O)N1c2ccccc2[C@H](Nc2ccc(NC(=O)NCC(=O)NC3CCC(N[C@@H]4C[C@H](C)N(C(=O)CC)c5ccccc54)CC3)cc2)C[C@@H]1C (relative stereo) [Compound 9c, N-((1R,4R)-4-(((2S*,4R*)-2-Methyl-1-propionyl-1,2,3,4-tetrahydroquinolin-4-yl)amino)cyclohexyl)-2-(3-(4-(((2S,4R)-2-methyl-1-propionyl-1,2,3,4-tetrahydroquinolin-4-yl)amino)phenyl)ureido)acetamide] | 12.4 | 
CCC(=O)N1c2ccccc2[C@H](Nc2ccc(C(=O)NC3CN(C(=O)C4CCC(N[C@@H]5C[C@H](C)N(C(=O)CC)c6ccccc65)CC4)C3)cc2)C[C@@H]1C (relative stereo) [Compound 7n, 4-(((2S,4R)-2-Methyl-1-propionyl-1,2,3,4-tetrahydroquinolin-4-yl)amino)-N-(1-((1R,4R)-4-(((2S*,4R*)-2-methyl-1-propionyl-1,2,3,4-tetrahydroquinolin-4-yl)amino)cyclohexane-1-carbonyl)azetidin-3-yl)benzamide] | 13.9 | 
CCC(=O)N1c2ccccc2[C@H](Nc2ccc(NC(=O)CNCC(=O)Nc3ccc(N[C@@H]4C[C@H](C)N(C(=O)CC)c5ccccc54)nc3)cc2)C[C@@H]1C (relative stereo) [Compound 17g, N-(4-(((2S,4R)-2-Methyl-1-propionyl-1,2,3,4-tetrahydroquinolin-4-yl)amino)phenyl)-2-((2-((6-(((2S*,4R*)-2-methyl-1-propionyl-1,2,3,4-tetrahydroquinolin-4-yl)amino)pyridin-3-yl)amino)-2-oxoethyl)amino)acetamide] |  | 32.7
CCC(=O)N1c2ccccc2[C@H](Nc2ccc(-n3cc(CNC(=O)c4cccc(Oc5ccccc5-c5cn(C)c(=O)cc5OC)c4)nn3)cc2)C[C@@H]1C [Compound 17d, 3-(2-(4-Methoxy-1-methyl-6-oxo-1,6-dihydropyridin-3-yl)phenoxy)-N-((1-(4-(((2S,4R)-2-methyl-1-propionyl-1,2,3,4-tetrahydroquinolin-4-yl)amino)phenyl)-1H-1,2,3-triazol-4-yl)methyl)benzamide] |  | 0.13
CCC(=O)N1c2ccccc2[C@H](Nc2ccc(C(=O)NCCS(=O)(=O)NC3CCC(N[C@@H]4C[C@H](C)N(C(=O)CC)c5ccccc54)CC3)cc2)C[C@@H]1C (relative stereo) [Compound 9a, 4-(((2S,4R)-2-Methyl-1-propionyl-1,2,3,4-tetrahydroquinolin-4-yl)amino)-N-(2-(N-((1R,4R)-4-(((2S*,4R*)-2-methyl-1-propionyl-1,2,3,4-tetrahydroquinolin-4-yl)amino)cyclohexyl)sulfamoyl)ethyl)benzamide] | 1.68 | 
CCC(=O)N1c2ccccc2[C@H](Nc2ccc(C(=O)NC3CN(C(=O)c4ccc(C5=N[C@@H](CC(=O)OCCN(C)C)c6nnc(C)n6-c6sc(C)c(C)c65)cc4)C3)cc2)C[C@@H]1C [Compound 13b, 2-(Dimethylamino)ethyl 2-((S)-2,3,9-trimethyl-4-(4-(3-(4-(((2S,4R)-2-methyl-1-propionyl-1,2,3,4-tetrahydroquinolin-4-yl)amino)benzamide)azetidine-1-carbonyl)phenyl)-6H-thieno[3,2-f][1,2,4]triazolo[4,3-a][1,4]diazepin-6-yl)acetate] | 3.5 | 
CCC(=O)N1c2ccccc2[C@H](Nc2ccc(C(=O)c3cnc4n3CCN(C(=O)C3CCC(N[C@@H]5C[C@H](C)N(C(=O)CC)c6ccccc65)CC3)C4)cc2)C[C@@H]1C (relative stereo) [Compound 7i, 1-((2S*,4R*)-2-Methyl-4-(((1r,4R)-4-(3-(4-(((2S,4R)-2-methyl-1-propionyl-1,2,3,4-tetrahydroquinolin-4-yl)amino)benzoyl)-5,6,7,8-tetrahydroimidazo[1,2-a]pyrazine-7-carbonyl)cyclohexyl)amino)-3,4-dihydroquinolin-1(2H)-yl)propan-1-one] | 0.33 | 
CCC(=O)N1c2ccccc2[C@H](Nc2ccc(-c3cnc4n3CCN(C(=O)C3CCC(N[C@@H]5C[C@H](C)N(C(=O)CC)c6ccccc65)CC3)C4)cc2)C[C@@H]1C (relative stereo) [Compound 8h, 1-((2S*,4R*)-2-methyl-4-(((1R,4R)-4-(3-(4-(((2S,4R)-2-methyl-1-propionyl-1,2,3,4-tetrahydroquinolin-4-yl)amino)phenyl)-5,6,7,8-tetrahydroimidazo[1,2-a]pyrazine-7-carbonyl)cyclohexyl)amino)-3,4-dihydroquinolin-1(2H)-yl)propan-1-one] | 1.14 | 
CCC(=O)N1c2ccccc2[C@H](Nc2ccc(C(=O)c3cnc4n3CCN(C(=O)c3ccc(N[C@@H]5C[C@H](C)N(C(=O)CC)c6ccccc65)cc3)C4)cc2)C[C@@H]1C [Compound 6f, 1,1′-((2S,2'S,4R,4R)-(((5,6,7,8-Tetrahydroimidazo[1,2-a]pyrazine-3,7-dicarbonyl)bis(4,1-phenylene))bis(azanediyl))bis(2-methyl-3,4-dihydroquinoline-4,1(2H)-diyl))bis(propan-1-one)] | 0.11 | 
